Laboratory results as given in US9260382B2, “Methods of reducing virulence in bacteria” (priority 2010, dated 2016).
“Also recorded” adds a separate entry of the source.

Tests used:
hrpS promoter = experiment: GFP reporter plasmid phrpS, flow cytometry of hrpS promoter activity; format: cell-based, Dickeya dadantii 3937; settings: reporter plasmid phrpS
Description: FACS analysis of promoter activity of dspE, hrpA, hrpL, hrpN, and hrpS was carried out as described (Peng et al., 2006). Briefly, the wild-type Ech3937 and the mutant strains carrying the promoter reporter plasmid were grown on LB broth at 28° C. overnight and transferred to appropriate media. For FACS analysis, samples were collected by centrifugation, washed with 1× phosphate buffer saline (PBS) at 13,000 rpm for 1 min, and re-suspended in 1×PBS to ca 10^6 CFU/ml prior to being run in a FACS Calibur flow cytometer (BD Biosciences, CA). Three replicates were performed for each treatment.
To test for an inhibitory effect on T3SS hrpS expression, the reporter plasmid phrpS was used to measure the effects of these compounds on hrpA expression.

hrpA promoter (T3SS) [1] = experiment: hrpA promoter-probe phrpA in Erwinia amylovora 273, flow cytometry; format: cell-based; settings: Ea273 (phrpA), HIM + 100 μM compound
In short: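 Erwinia amylovora 273 carrying an hrpA promoter–GFP fusion (pPROBE-NT) was grown in hrp-inducing medium with 100 μM compound or DMSO. Promoter activity read as GFP intensity by flow cytometry at 6 h and 9 h.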

rsmB RNA = experiment: Northern blot analysis of rsmB RNA; format: cell-based, D. dadanti 3937; settings: bacterial cells cultured in media supplemented with compound (FIG. 23)
Excerpt: Northern blot analysis was used to quantify rsmB RNA of D. dadanti 3937.

hrpA promoter (T3SS) [2] = experiment: GFP reporter plasmid phrpA, flow cytometry (FACS) of hrpA promoter activity; format: cell-based, Dickeya dadantii 3937; settings: for mean fluorescence intensity of GFP, hrpA expression: D. dadantii 3937 (phrpA), MM + 100 μM compound
In short: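 D. dadantii (Ech) 3937 carrying the phrpA promoter–GFP transcriptional fusion was grown in T3SS minimal medium with 100 μM compound, starting from an inoculum of OD600 1.0. GFP was read by flow cytometry at 12 and 24 h. Values are mean fluorescence intensity of three replicates ± SD, with compound-free MM as control.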

COc1ccc(/C=C/C(=O)NO)cc1 [Compound 125, trans-4-Methoxycinnamohydroxamic acid]
inhibitory effect on T3SS hrpS expression, in words (hrpS promoter): inhibited hrpS
Avg MFI ± SD, hrpA expression (hrpA promoter (T3SS) [1]; 6 h): 215.5 ± 6.5
Avg MFI ± SD, hrpA expression (hrpA promoter (T3SS) [1]; 9 h): 230.0 ± 4.4
rsmB RNA level, Northern blot, in words (rsmB RNA): reduced rsmB mRNA
mean fluorescence intensity of GFP, hrpA expression (hrpA promoter (T3SS) [2]; 12 h): 17.4 ± 0.9
mean fluorescence intensity of GFP, hrpA expression (hrpA promoter (T3SS) [2]; 24 h): 25.6 ± 2.0
inhibitory activity on T3SS gene (hrpA) expression, in words (hrpA promoter (T3SS) [2]; D. dadantii 3937, reporter plasmid phrpA, 100 μM): showed inhibitory effect; also recorded: potent inhibitory activity
minimal effective concentration (hrpA promoter (T3SS) [2]; Dickeya dadantii, read-out: minimal inhibitory concentration on hrpA expression (concentration showing inhibitory effect)): 100 µM
Mean Fluorescence Intensity of GFP (hrpA, phrpA) (hrpA promoter (T3SS) [2]; Trial 2, MM supplemented with compound at 100 μM): 25.9 ± 1.0
